Literature values as cited in US11510895B2, “Compositions and formulations including cabazitaxel and human serum albumin” (Zhuhai Beihai Biotech Co., Ltd., priority 2016, dated 2022).

Assays:
human serum albumin = human serum albumin (Homo sapiens, UniProt P02768); details: in vitro
human serum proteins = details: in vitro

Sequence of human serum albumin (P02768 25-609): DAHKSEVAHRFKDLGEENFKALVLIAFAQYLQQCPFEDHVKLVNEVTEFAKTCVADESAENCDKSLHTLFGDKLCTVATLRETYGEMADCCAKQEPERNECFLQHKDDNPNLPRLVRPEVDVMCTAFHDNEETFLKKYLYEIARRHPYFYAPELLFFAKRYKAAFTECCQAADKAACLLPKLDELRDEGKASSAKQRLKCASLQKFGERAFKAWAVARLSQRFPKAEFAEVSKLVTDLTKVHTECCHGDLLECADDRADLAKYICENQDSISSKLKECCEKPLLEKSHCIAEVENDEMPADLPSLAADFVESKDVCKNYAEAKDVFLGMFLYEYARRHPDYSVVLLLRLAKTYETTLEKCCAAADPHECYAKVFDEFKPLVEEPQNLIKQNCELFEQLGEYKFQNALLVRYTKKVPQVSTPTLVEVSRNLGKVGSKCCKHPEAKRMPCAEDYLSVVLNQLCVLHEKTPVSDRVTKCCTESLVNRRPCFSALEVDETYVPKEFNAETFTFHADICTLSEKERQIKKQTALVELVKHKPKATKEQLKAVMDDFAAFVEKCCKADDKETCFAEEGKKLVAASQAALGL

bound to human serum albumin (human serum albumin): 82%
saturability of the binding to human serum proteins (human serum proteins): not saturable up to 50,000
solubility in alcohol: soluble
solubility in water: practically insoluble
Compound: CO[C@H]1C(=O)[C@]2(C)[C@@H](OC)C[C@H]3OC[C@@]3(OC(C)=O)[C@H]2[C@H](OC(=O)c2ccccc2)[C@]2(O)C[C@H](OC(=O)[C@H](O)[C@@H](NC(=O)OC(C)(C)C)c3ccccc3)C(C)=C1C2(C)C [cabazitaxel]
